Data from US11447501B2, “Biphenyl-containing diarylpyrimido compounds, pharmaceutically-acceptable salts thereof, composition and preparation thereof” (Fudan University, priority 2019, dated 2022).

Assay: Cytotoxicity in uninfected MT-4 cells (MTT assay)
Format: cell-based
Settings: human, uninfected MT-4 cells; concentration that reduces normal uninfected MT-4 cell viability by 50%

Row | Structure (SMILES) | CC50 at 7 d
1 | Cc1ccnc2c1NC(=O)c1cccnc1N2C1CC1 [NVP, Nevirapine] | > 15 µM
2 | Cc1cc(C#N)cc(C)c1Oc1nc(Nc2ccc(C#N)cc2)nc(N)c1Br [ETR, Etravirine] | > 4.61 µM

Same assay, conditions: human; concentration that reduces normal uninfected MT-4 cell viability by 50%

Row | Structure (SMILES) | CC50 at 7 d
3 | O=C1Nc2ccc(Cl)cc2[C@@](C#CC2CC2)(C(F)(F)F)O1 [EFV, Efavirenz] | > 6.34 µM

Assay: not given
Settings: not given

Row | melting point | Structure (SMILES)
4 | 268.5 to 271 °C | Cc1cc(-c2ccc(C#N)cc2F)ccc1Oc1nc(Nc2ccc(C#N)cc2)nc2ccsc12 [Example 9]
5 | 264.9 to 266.2 °C | Cc1cc(-c2ccc(Oc3nc(Nc4ccc(C#N)cc4)nc4ccsc34)cc2C)ccc1C#N [Example 18]
6 | 275.2 to 276.8 °C | Cc1cc(C#N)ccc1-c1ccc(Oc2nc(Nc3ccc(C#N)cc3)nc3ccsc23)c(F)c1 [Example 13]
7 | 252.5 to 254.2 °C | Cc1cc(-c2ccc(Oc3nc(Nc4ccc(C#N)cc4)nc4ccsc34)c(F)c2)ccc1C#N [Example 14]
8 | 262.4 to 263.7 °C | Cc1cc(-c2ccc(C#N)cc2C)ccc1Oc1nc(Nc2ccc(C#N)cc2)nc2ccsc12 [Example 15]
9 | 274.3 to 275.8 °C | Cc1cc(C#N)ccc1-c1ccc(Oc2nc(Nc3ccc(C#N)cc3)nc3ccsc23)cc1C [Example 17]
10 | 299.3 to 300.2 °C | Cc1cc(-c2ccc(C#N)c(F)c2)ccc1Oc1nc(Nc2ccc(C#N)cc2)nc2ccsc12 [Example 10]
11 | 259.4 to 261.1 °C | Cc1cc(-c2ccc(Oc3nc(Nc4ccc(C#N)cc4)nc4ccsc34)c(C)c2)ccc1C#N [Example 16]

The remaining lines, values behind:

Row | Structure (SMILES) | melting point
12 | Cc1cc(-c2ccc(Oc3nc(Nc4ccc(C#N)cc4)nc4ccsc34)cc2)ccc1C#N [Example 6] | 256.5 to 257.9 °C
13 | N#Cc1ccc(Nc2nc(Oc3ccc(-c4ccc(C#N)c(F)c4)cc3)c3sccc3n2)cc1 [Example 2] | 258.8 to 260.3 °C
14 | Cc1cc(C#N)ccc1-c1ccc(Oc2nc(Nc3ccc(C#N)cc3)nc3ccsc23)cc1 [Example 5] | 278.4 to 279.5 °C
15 | N#Cc1ccc(Nc2nc(Oc3ccc(-c4ccc(C#N)cc4F)cc3F)c3sccc3n2)cc1 [Example 7] | 295.3 to 297 °C
16 | N#Cc1ccc(Nc2nc(Oc3ccc(-c4ccc(C#N)c(F)c4)cc3F)c3sccc3n2)cc1 [Example 8] | > 300 °C
17 | N#Cc1ccc(Nc2nc(Oc3ccc(-c4ccc(C#N)cc4Cl)cc3)c3sccc3n2)cc1 [Example 3] | > 300 °C
18 | N#Cc1ccc(Nc2nc(Oc3ccc(-c4ccc(C#N)cc4F)cc3)c3sccc3n2)cc1 [Example 1] | 272.5 to 273.6 °C
19 | N#Cc1ccc(Nc2nc(Oc3ccc(-c4ccc(C#N)c(Cl)c4)cc3)c3sccc3n2)cc1 [Example 4] | 246.3 to 247.7 °C

Assay: not given
Settings: clinical use; cited from earlier work

Row | Structure (SMILES) | response rate
20 | Cc1cc(C#N)cc(C)c1Oc1nc(Nc2ccc(C#N)cc2)nc(N)c1Br [ETR, Etravirine] | 36.5%
